In brackets after ≈: the same amount, converted by molar mass. Where a name gives a salt, the structure may show the parent alone. Read-outs that look alike come from different tables or passages of the source.
Key:
MRSA Pyk = target: T1, MRSA Pyk (Staphylococcus aureus, UniProt Q6GG09); assay: MRSA pyruvate kinase (PK) activity, continuous LDH-coupled assay; type: biochemical, methicillin resistant S. aureus (MRSA252)
T1 construct: made in house; host or cells: E. coli BL-21 (DE3)
Outline: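 Activity monitored continuously as absorbance change at 340 nm from NADH oxidation via coupled lactate dehydrogenase, reactions started with 15 nM recombinant His-tagged PK (MRSA or human isoform) and run at 30° C for up to 5 min. Ki derived by varying inhibitor (0-400 nM) and PEP (2-20 mM) at 2 mM ADP; IC50 by four-parameter fitting.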

VRE#2 (2010A) = assay: In vitro susceptibility, broth microdilution (MIC); type: cell-based, vancomycin resistant Enterococci; conditions: read-out: Antimicrobial activity (MIC) VRE#2
Outline: (§1)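 MIC determined by CLSI 2-fold broth microdilution in cation-adjusted Mueller–Hinton broth at ~2.5×10^5 CFU/ml, final compound 0.031–64 μg/ml, 18–24 h at 37 °C. MIC is the lowest concentration giving complete growth inhibition by background-corrected OD600 versus compound-free wells; duplicate or triplicate wells, replicated at least twice.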

S. aureus (ATCC29213) = assay: In vitro susceptibility, broth microdilution (MIC); type: cell-based; conditions: Staphylococcus aureus
Outline: (§2)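 CLSI 2-fold serial broth microdilution; K. pneumoniae C238 grown in L-broth, S. aureus ATCC 29213 in Mueller Hinton broth, plates incubated 18–24 h at 37 °C. MIC taken as lowest concentration giving complete growth inhibition by OD600 versus compound-free wells, background-subtracted.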

K. pneumoniae (C238) = assay: In vitro susceptibility, broth microdilution (MIC); type: cell-based; conditions: Klebsiella pneumoniae, read-out: Antimicrobial activity (MIC) K. pneumoniae
Outline: as §2

MRSA MW2 (USA400) = assay: In vitro susceptibility, broth microdilution (MIC); type: cell-based, methicillin resistant S. aureus; conditions: Staphylococcus aureus, read-out: Antimicrobial activity (MIC) MSRA USA400
Outline: as §1

[1] = tested on: A. baumannii (ATCC 17978); assay: In vitro susceptibility, broth microdilution (MIC); type: cell-based; conditions: Acinetobacter baumannii
Outline: as §1

S. aureus ATCC 29123 = assay: Thigh infection model in neutropenic mice; type: in vivo, female CD-1 mice; conditions: thigh muscle, 10 mg/kg IV BID (2 and 8 h post-infection), 24 hr post infection
Method: The antimicrobial activity of compounds 23 and 60 against S. aureus ATCC 29123 was tested in vivo using a thigh infection model in neutropenic mice. Briefly, animals (female CD-1 mice, 5 weeks of age) were made neutropenic prior to S. aureus thigh infection by pre-treating with cyclophosphamide (150 mg/kg, IP, −4 and −1 days pre-inoculation). On the inoculation day (day 0), mice were infected with S. aureus at time zero (t=0). Animals were individually monitored for adverse reactions for 30 min post-infection.
Compounds 23 and 60 were prepared for IV administration and for oral administration. Vancomycin was administered as a solution in PBS. The test compounds were administered at 2 and 8 hours post-infection and animals were individually monitored for adverse reactions for 30 min after each injection. All animals were then monitored hourly from 20 hours post infection to the endpoint (t=24 hr post infection). At the indicated timepoint, animals were sacrificed and the injected thigh collected.
Quantitative enumeration of bacterial load was determined by plating serial dilutions from homogenized thigh muscles. The plates were incubated and colony counts were determined. CFU per mL calculated was calculated.

[2] = tested on: S. typhimurium (ATCC BAA-185); assay: In vitro susceptibility, broth microdilution (MIC); type: cell-based; conditions: Salmonella enterica, read-out: Antimicrobial activity (MIC) S. typhimurium
Outline: as §1

MRSA (ATCC BAA-1762) = assay: In vitro susceptibility, broth microdilution (MIC); type: cell-based, methicillin resistant S. aureus; conditions: Staphylococcus aureus; MRSA ATCC BAA-1762; read-out: Antimicrobial activity (MIC) MRSA ATCC BAA1762
Outline: as §1

[3] = tested on: A. baumannii (ATCC 19606); assay: In vitro susceptibility, broth microdilution (MIC); type: cell-based; conditions: Acinetobacter baumannii, ATCC19606; A. baumannii ATCC 19606 (values without asterisk); read-out: Antimicrobial activity (MIC) A. baumannii
Outline: as §1

[4] = Mammalian cytotoxicity, CellTiter 96 AQueous One (MTS); type: cell-based; conditions: human, HeLa 229 cells, positive control
Method: The cytotoxic activities of compounds were determined for HeLa cells 229 (ATCC:CCL-2-.1) in microtiter cultures by measuring dehydrogenase activity using CellTiter 96® AQueous One Solution Cell Proliferation Assay™ (Promega™, Madison, Wis., USA), according to the manufacturer's protocol. Freshly split cells were seeded into microtiter wells (2×10^4/well) and grown for 24 hours. The original media was then removed and replaced with media containing the desired concentration of compound or solvent control (i.e., DMSO). Plates were incubated for 24 h at 37° C. in a humidified incubator with a 5% CO2 atmosphere. At the end of the growth period, cells were lysed by the addition of 20 μl of Cell Titer 96 Aqueous One™ solution, and the incubation was continued for another 3 h at 37° C. Production of formazan was determined at 490 nm on Benchmark Plus™ microplate spectrophotometer (Bio-Rad™). To control for intrinsic absorbance, control series containing inhibitor dilutions but no cells were run for every experiment and the resulting absorbance values were subtracted as background from the experimental readings. Growth in compound-free control wells was considered as 100% and percentage of growth inhibition was calculated for each compound concentration. Cytotoxicity was quantified as the CC50, the concentration of compound that inhibited 50% of conversion of MTS to formazan. […]

[5] = S. aureus ATCC29213, 18-24 h, 37 C, read-out: Antimicrobial activity (MIC) S. aureus ATCC29213
[6] = ATCC17978, A. baumannii ATCC 17978 (values marked *), read-out: Antimicrobial activity (MIC) A. baumannii

T1 sequence (Q6GG09 whole entry): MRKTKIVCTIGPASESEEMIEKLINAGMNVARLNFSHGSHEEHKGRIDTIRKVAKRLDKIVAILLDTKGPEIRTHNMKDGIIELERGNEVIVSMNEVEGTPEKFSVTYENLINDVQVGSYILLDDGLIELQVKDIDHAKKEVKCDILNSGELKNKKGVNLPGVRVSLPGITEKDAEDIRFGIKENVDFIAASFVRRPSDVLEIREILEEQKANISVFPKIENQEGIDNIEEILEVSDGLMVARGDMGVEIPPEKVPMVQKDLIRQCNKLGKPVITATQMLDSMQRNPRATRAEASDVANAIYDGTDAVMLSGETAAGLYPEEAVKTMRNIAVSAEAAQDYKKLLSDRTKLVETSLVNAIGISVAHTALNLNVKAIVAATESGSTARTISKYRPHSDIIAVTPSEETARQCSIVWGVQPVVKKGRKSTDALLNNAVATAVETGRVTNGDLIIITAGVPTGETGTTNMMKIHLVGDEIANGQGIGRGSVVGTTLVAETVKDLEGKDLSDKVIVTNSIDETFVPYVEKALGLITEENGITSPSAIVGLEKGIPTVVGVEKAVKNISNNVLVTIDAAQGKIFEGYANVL

SMILES	IC50 (MRSA Pyk)	MIC (S. aureus (ATCC29213); [5])	MIC (VRE#2 (2010A); VRE#2 (2010A))	MIC (MRSA MW2 (USA400); MRSA MW2 (USA400))	other results
CN1CCN(CCC(=O)c2c(/C=C/c3ccc(Cl)cc3)[nH]c3cc(Br)ccc23)CC1 [Compound 7, (E)-1-(6-Bromo-2-(4-chlorostyryl)-1H-indol-3-yl)-3-(4-methylpiperazin-1-yl)propan-1-one Hydrochloride]	100 to 1000 nM	–	–	–	MIC (VRE#2 (2010A)): 8 µg/mL; MIC (S. aureus (ATCC29213); ATCC29213, read-out: Antimicrobial activity (MIC) S. aureus ATCC29213): 8 µg/mL; MIC (K. pneumoniae (C238)): 8 µg/mL; MIC (MRSA MW2 (USA400)): 8 µg/mL; MIC ([1]; ATCC17978, read-out: Antimicrobial activity (MIC) A. baumannii): > 64 µg/mL
CN(C)CCNC(=O)c1c(/C=C/c2ccc(Cl)cc2)[nH]c2cc(Br)ccc12 [Compound 23, (E)-6-Bromo-2-(4-chlorostyryl)-N-(2-(dimethylamino)ethyl)-1H-indole-3-carboxamide]	< 100 nM	8 µg/mL (≈ 17.9 µM)	–	–	reduction in CFU (S. aureus ATCC 29123): 3 log
CN1CCN(CCOC(=O)c2c(/C=C/c3ccc(Cl)cc3)[nH]c3cc(Br)ccc23)CC1 [Compound 61, 2-(4-Methylpiperazin-1-yl)ethyl (E)-6-bromo-2-(4-chlorostyryl)-1H-indole-3-carboxylate]	100 to 1000 nM	4 µg/mL (≈ 7.95 µM)	4 µg/mL (≈ 7.95 µM)	4 µg/mL (≈ 7.95 µM)	MIC (K. pneumoniae (C238); K. pneumoniae (C238)): 4 µg/mL (≈ 7.95 µM); MIC [1, 6]: > 64 µg/mL
CN(C)CCC(=O)c1c(/C=C/c2ccc(Cl)cc2)[nH]c2cc(Br)ccc12.Cl [Compound 6, (E)-1-(6-Bromo-2-(4-chlorostyryl)-1H-indol-3-yl)-3-(dimethylamino)propan-1-one Hydrochloride]	100 to 1000 nM	8 µg/mL	8 µg/mL	8 µg/mL	MIC (K. pneumoniae (C238)): 8 µg/mL; MIC [1, 6]: 64 µg/mL
O=C(O)CCCC(=O)c1c(-c2cc3cc(Cl)ccc3[nH]2)[nH]c2cc(Br)ccc12 [Compound 102, 5-(6-bromo-5′-chloro-1H,1′H-[2,2′-biindol]-3-yl)-5-oxopentanoic Acid]	< 100 nM	8 µg/mL (≈ 17.4 µM)	16 µg/mL (≈ 34.8 µM)	8 µg/mL (≈ 17.4 µM)	MIC (K. pneumoniae (C238); K. pneumoniae (C238)): 16 µg/mL (≈ 34.8 µM); MIC [2]: 8 µg/mL (≈ 17.4 µM)
CN(C)CCOc1cc2[nH]c(-c3cc4ccc(Br)cc4[nH]3)cc2cc1Cl [Compound 199, 2-((6′-Bromo-5-chloro-1H,1′H-[2,2′-biindol]-6-yl)oxy)-N,N-dimethylethan-1-amine]	< 100 nM	4 µg/mL (≈ 9.24 µM)	4 µg/mL (≈ 9.24 µM)	–	MIC (MRSA (ATCC BAA-1762)): 4 µg/mL (≈ 9.24 µM); MIC [3]: 8 µg/mL (≈ 18.5 µM); MIC [2]: 32 µg/mL (≈ 73.9 µM)
COc1cc(O)c(CC=C(C)C)c(O)c1C(=O)/C=C/c1ccc(O)cc1 [xanthohumol]	–	–	–	–	CC50 at 24 h [4]: ~9 µg/mL (≈ 25.4 µM)

— US20180312493A1, “Antibiotic Compounds, Pharmaceutical Formulations Thereof And Methods And Uses Therefor” (Simon Fraser University, priority 2015, published 2018)
